Data published in ChEMBL document CHEMBL5230155, “Recent contributions of quinolines to antimalarial and anticancer drug discovery research” (Eur J Med Chem, 2021).
≈ marks a conversion by molar mass, not a printed value. Blank lines part the entries; values can stand above or below the molecule they belong to.

Tests used:
Plasmodium falciparum [1] = assay: Antimalarial activity against CQ-resistant Plasmodium falciparum Dd2; type: functional, organism-based
MV4-11 = assay: Antiproliferative activity against human MV4-11 cells; type: functional, cell-based
[2] = target: Histone-lysine N-methyltransferase, H3 lysine-79 specific (Homo sapiens, UniProt Q8TEK3); assay: Inhibition of DOT1L (unknown origin)
Plasmodium falciparum [3] = assay: Antimalarial activity against CQ-sensitive Plasmodium falciparum 3D7; type: functional, organism-based
Plasmodium falciparum [4] = assay: Antimalarial activity against CQ-resistant Plasmodium falciparum W2; type: functional, organism-based
Plasmodium falciparum [5] = assay: Selectivity index, ratio of IC50 for Chloroquine resistant Plasmodium falciparum W2 to IC50 for Chloroquine sensitive Plasmodium falciparum 3D7; type: functional
Hemozoin [6] = assay: Inhibition of beta-hematin formation
Plasmodium berghei [7] = assay: Antimalarial activity against Plasmodium berghei ANKA infected in mouse assessed increase in survival time (reference value: 6.8 day); type: functional
Plasmodium falciparum [8] = assay: Antimalarial activity against Plasmodium falciparum 3D7; type: functional, organism-based
Plasmodium berghei [9] = assay: Antimalarial activity against Plasmodium berghei ANKA infected in mouse assessed increase in survival time at 20 mg/kg/day, ip for 4 days; type: functional; conditions: time 4 day
Plasmodium berghei [10] = assay: Antiplasmodial activity against Plasmodium berghei ANKA infected in mouse assessed as reduction in parasitaemia at 20 mg/kg/day, ip administered for 4 days; type: functional; parameters: scale not given: the % may be the effect or the level left; conditions: time 4 day
Plasmodium berghei [11] = assay: Antiplasmodial activity against Plasmodium berghei infected in mouse assessed as reduction in parasitaemia at 200 mg/kg/day, ip administered for 4 days; type: functional; parameters: scale not given: the % may be the effect or the level left; conditions: time 4 day
Plasmodium berghei [12] = assay: Antiplasmodial activity against Plasmodium berghei infected in mouse assessed as increase in mean survival time at 100 mg/kg, po administered for 3 days (reference value: 7.6 day); type: functional; conditions: time 3 day
Hemozoin [13] = assay: Inhibition of beta-hematin formation relative to control; conditions: concentration not given here
[14] = target: Hepatocyte growth factor receptor (Homo sapiens, UniProt P08581); assay: Inhibition of c-Met (unknown origin)
Leukemia cell = assay: Antiproliferative activity against human Leukemia cells; type: functional
[15] = Antiproliferative activity against human CNS cells; type: functional; conditions: CNS cell
Breast carcinoma cell = assay: Antiproliferative activity against human breast cancer cells; type: functional
Plasmodium falciparum [16] = assay: Antimalarial activity against multidrug resistant Plasmodium falciparum Dd2; type: functional, organism-based
Plasmodium falciparum [17] = assay: Antimalarial activity against CQ-sensitive Plasmodium falciparum D6; type: functional, organism-based
Plasmodium falciparum [18] = assay: Antimalarial activity against CQ-resistant Plasmodium falciparum 7G8; type: functional, organism-based
Lymphocyte = assay: Cytotoxicity against mouse spleen lymphocytes; type: toxicity, cell-based
A549 = assay: Cytotoxicity against human A549 cells; type: functional, cell-based
K562 = assay: Cytotoxicity against human K562 cells; type: functional, cell-based
[19] = target: Phosphatidylinositol 4,5-bisphosphate 3-kinase catalytic subunit gamma isoform (Homo sapiens, UniProt P48736); assay: Inhibition of PI3K gamma (unknown origin)
HepG2 [20] = assay: Cytotoxicity against human HepG2 cells; type: functional, cell-based; conditions: Homo sapiens, HepG2
HCT-116 = assay: Cytotoxicity against human HCT-116 cells; type: functional, cell-based
[21] = target: T1, Epidermal growth factor receptor (Homo sapiens, UniProt P00533); assay: Inhibition of EGFR (unknown origin)
MCF7 [22] = assay: Antiproliferative activity against human MCF7 cells; type: functional, cell-based; conditions: Homo sapiens, MCF7
A2780 [23] = assay: Antiproliferative activity against human A2780 cells; type: functional, cell-based
A2780 [24] = assay: Antiproliferative activity against cisplatin resistant human A2780 cells; type: functional, cell-based
MCF7 [25] = assay: Antiproliferative activity against mitoxantrone resistant human MCF7 cells; type: functional, cell-based
[26] = Antiproliferative activity against HUVEC cells; type: toxicity, cell-based; conditions: human
[27] = target: T1, Epidermal growth factor receptor
Plasmodium berghei [28] = assay: Antimalarial activity against liver stage Plasmodium berghei; type: functional, organism-based
[29] = target: Cathepsin B (Homo sapiens) (UniProt P07858); assay: Inhibition of human cathepsin B endopeptidase activity at 50 uM relative to control
Hep 3B2 [30] = assay: Cytotoxicity against human Hep3B cells assessed as relative value at 15 uM after 48 hrs by MTS method; type: functional
Hep 3B2 [31] = assay: Cytotoxicity against human Hep3B cells; type: functional, cell-based
[32] = Cytotoxicity against human SLMT-1 cells
HepG2 [33] = assay: Antitumor activity against human HepG2 cells xenografted in nude mouse assessed as reduction in tumor increment rate at 5 mg/kg/day (reference value: 100%); type: functional; parameters: scale not given: the % may be the effect or the level left
HeLa = assay: Cytotoxicity against human HeLa cells at 2.5 uM; type: functional
NCI-H460 = assay: Antiproliferative activity against human NCI-H460 cells; type: functional, cell-based
PANC-1 = assay: Antiproliferative activity against human PANC-1 cells; type: functional, cell-based
MIA PaCa-2 = assay: Antiproliferative activity against human MIA PaCa-2 cells; type: functional, cell-based
HT-29 = assay: Antiproliferative activity against human HT-29 cells; type: functional, cell-based
A-375 = assay: Antiproliferative activity against human A-375 cells; type: functional, cell-based

Sequence of Hepatocyte growth factor receptor (P08581 whole entry): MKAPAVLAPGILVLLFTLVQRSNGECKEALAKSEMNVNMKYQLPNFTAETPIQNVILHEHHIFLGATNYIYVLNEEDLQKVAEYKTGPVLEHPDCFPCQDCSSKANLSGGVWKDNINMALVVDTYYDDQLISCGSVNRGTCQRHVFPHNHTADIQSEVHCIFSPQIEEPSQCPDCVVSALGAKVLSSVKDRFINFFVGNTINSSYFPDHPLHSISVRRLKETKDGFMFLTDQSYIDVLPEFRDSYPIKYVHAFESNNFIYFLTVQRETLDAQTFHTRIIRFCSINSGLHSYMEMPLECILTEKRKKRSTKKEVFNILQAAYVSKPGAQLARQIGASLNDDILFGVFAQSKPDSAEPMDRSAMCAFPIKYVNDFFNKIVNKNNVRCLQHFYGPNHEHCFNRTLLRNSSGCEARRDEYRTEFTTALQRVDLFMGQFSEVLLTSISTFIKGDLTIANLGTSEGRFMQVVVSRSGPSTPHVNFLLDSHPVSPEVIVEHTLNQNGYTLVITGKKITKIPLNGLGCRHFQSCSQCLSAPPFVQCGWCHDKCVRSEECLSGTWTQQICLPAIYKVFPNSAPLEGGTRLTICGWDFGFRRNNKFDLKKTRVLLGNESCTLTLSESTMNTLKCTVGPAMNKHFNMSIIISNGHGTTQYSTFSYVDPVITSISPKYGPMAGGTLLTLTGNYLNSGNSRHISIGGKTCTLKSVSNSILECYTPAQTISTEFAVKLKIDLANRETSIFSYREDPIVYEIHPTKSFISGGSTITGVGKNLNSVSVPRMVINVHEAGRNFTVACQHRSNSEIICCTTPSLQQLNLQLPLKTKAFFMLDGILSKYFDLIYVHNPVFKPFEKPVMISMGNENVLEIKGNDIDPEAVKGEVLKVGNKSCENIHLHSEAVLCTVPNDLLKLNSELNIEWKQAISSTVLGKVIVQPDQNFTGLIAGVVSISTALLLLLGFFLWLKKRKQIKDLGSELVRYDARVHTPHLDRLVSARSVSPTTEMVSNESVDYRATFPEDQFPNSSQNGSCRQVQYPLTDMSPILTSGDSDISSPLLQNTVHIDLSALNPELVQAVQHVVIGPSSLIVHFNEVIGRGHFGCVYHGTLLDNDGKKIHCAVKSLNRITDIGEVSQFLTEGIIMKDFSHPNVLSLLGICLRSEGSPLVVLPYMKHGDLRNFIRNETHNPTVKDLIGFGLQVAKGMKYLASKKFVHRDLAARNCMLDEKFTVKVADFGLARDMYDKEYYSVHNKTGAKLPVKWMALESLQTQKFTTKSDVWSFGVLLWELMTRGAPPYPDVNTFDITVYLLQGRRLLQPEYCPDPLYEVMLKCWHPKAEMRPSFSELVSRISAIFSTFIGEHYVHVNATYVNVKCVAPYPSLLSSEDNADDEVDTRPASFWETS
T1 sequence (P00533 whole entry): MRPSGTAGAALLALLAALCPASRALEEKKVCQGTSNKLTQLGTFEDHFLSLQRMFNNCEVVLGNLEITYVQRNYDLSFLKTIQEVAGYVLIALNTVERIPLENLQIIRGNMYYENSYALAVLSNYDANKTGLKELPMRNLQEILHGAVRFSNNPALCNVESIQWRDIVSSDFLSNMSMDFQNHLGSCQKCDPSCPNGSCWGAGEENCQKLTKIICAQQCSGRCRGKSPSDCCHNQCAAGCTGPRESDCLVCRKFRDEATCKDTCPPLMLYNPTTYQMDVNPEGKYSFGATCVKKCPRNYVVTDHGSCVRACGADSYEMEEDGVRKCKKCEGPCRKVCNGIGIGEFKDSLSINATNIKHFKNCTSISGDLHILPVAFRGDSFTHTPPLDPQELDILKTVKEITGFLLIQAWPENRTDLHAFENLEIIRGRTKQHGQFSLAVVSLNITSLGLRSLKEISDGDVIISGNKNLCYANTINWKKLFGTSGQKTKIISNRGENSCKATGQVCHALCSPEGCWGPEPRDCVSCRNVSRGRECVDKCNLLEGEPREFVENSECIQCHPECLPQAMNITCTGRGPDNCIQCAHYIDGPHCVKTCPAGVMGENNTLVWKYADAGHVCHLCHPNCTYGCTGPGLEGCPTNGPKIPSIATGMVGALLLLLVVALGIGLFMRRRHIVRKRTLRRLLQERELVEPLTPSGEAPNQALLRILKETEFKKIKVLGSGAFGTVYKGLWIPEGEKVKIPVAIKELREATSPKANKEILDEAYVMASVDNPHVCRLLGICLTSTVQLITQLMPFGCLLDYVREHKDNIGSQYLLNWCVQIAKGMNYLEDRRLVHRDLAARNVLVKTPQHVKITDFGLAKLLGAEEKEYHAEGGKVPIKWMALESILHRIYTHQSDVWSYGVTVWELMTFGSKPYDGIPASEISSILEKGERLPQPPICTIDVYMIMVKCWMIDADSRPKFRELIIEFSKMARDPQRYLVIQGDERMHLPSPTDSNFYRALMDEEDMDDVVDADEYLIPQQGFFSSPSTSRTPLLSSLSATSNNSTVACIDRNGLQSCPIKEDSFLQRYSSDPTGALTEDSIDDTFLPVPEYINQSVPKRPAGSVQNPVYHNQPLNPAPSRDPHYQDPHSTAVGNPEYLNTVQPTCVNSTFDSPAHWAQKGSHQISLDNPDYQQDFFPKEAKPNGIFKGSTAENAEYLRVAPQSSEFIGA
Sequence of Phosphatidylinositol 4,5-bisphosphate 3-kinase catalytic subunit gamma isoform (P48736 whole entry, canonical isoform): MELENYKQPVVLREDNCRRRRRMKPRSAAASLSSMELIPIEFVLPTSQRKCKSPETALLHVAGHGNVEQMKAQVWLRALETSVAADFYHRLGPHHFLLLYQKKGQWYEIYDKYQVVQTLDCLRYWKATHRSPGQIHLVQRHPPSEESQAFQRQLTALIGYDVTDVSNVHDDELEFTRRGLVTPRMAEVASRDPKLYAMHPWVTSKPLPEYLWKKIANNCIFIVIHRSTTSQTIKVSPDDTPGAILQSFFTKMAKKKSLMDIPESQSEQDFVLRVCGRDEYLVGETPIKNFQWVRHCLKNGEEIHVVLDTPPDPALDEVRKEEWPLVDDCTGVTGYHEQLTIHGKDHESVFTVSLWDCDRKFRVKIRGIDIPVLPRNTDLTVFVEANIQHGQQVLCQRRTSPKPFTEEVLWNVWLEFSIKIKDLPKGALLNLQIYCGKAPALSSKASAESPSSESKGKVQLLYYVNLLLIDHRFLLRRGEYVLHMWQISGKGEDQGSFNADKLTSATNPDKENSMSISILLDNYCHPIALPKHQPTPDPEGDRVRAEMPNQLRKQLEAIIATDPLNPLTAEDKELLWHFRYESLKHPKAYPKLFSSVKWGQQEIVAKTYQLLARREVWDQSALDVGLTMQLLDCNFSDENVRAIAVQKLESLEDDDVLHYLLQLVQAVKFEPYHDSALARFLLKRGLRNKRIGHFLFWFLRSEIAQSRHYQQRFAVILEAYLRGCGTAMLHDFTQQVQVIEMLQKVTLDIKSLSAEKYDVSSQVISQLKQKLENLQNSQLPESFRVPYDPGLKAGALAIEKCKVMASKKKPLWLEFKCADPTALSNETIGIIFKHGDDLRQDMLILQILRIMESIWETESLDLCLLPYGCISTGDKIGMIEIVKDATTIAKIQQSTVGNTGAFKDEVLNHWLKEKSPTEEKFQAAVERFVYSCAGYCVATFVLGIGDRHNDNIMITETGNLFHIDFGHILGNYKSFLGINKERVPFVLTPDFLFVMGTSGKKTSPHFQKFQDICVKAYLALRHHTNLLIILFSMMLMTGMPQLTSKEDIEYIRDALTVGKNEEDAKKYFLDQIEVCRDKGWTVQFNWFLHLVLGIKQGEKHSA

Structure (SMILES): CN(C)CCNc1cc(/C=C/c2ccc(Br)cc2)nc2ccccc12
IC50 (Plasmodium falciparum [1]): 33 nM

Structure (SMILES): CN1CCN(CCNCc2ccc(-c3cc(-c4ccc(CNCCN5CCN(C)CC5)cc4)c4ccccc4n3)cc2)CC1
IC50 (Plasmodium falciparum [3]): 2420 nM
IC50 (Plasmodium falciparum [4]): 130 nM
Ratio IC50 (Plasmodium falciparum [5]): 20

Structure (SMILES): COC(=O)[C@@H](NC(=O)CSc1ccnc2cc(Cl)ccc12)C(C)C
inhibition (Hemozoin [6]; concentration not given here): 61.1%
Time (Plasmodium berghei [7]): 24.6 days

Structure (SMILES): CCN(CC)CCCC(C)Nc1ccnc2cc(Cl)ccc12 (stereo unspecified) [CHLOROQUINE]
EC50 (Plasmodium falciparum [8]): 165 nM
IC50 (Hemozoin [6]): 890000 nM
Time (Plasmodium berghei [9]): 24.99 days
Activity (Plasmodium berghei [10]): 0.32%
Activity (Plasmodium berghei [11]): 100%
Time (Plasmodium berghei [12]): 26.2 days
inhibition (Hemozoin [13]): 52.1%

Structure (SMILES): Clc1ccc2c(NCCCN3CCC(Nc4ccnc5cc(Cl)ccc45)CC3)ccnc2c1
IC50 (Plasmodium falciparum [16]): 0.36 nM
IC50 (Plasmodium falciparum [17]): 0.15 nM
IC50 (Plasmodium falciparum [18]): 0.33 nM
LC50 (Lymphocyte): 190 nM

Structure (SMILES): COc1ccc(/C=C/c2cc(Nc3cc(OC)c(OC)c(OC)c3)c3c(OC)c(OC)c(OC)cc3n2)cc1OC
IC50 (MCF7 [22]): 500 nM
IC50 (A2780 [23]): 500 nM
IC50 (A2780 [24]): 500 nM
IC50 (MCF7 [25]): 500 nM
IC50 [26]: 7820 nM

Structure (SMILES): CC(=O)O[C@H]1C(=O)[C@@]2(C)[C@H]([C@H](OC(=O)c3ccccc3)[C@]3(O)C[C@H](OC(=O)[C@H](O)[C@@H](NC(=O)c4ccccc4)c4ccccc4)C(C)=C1C3(C)C)[C@]1(OC(C)=O)CO[C@@H]1C[C@@H]2O [PACLITAXEL]
Activity (HepG2 [33]): 19%

Structure (SMILES): CCOc1ccc(Nc2cc(C)nc3ccc(Cl)cc23)cc1
Activity (HeLa): 8%

Further lines, with some results ahead:

IC50 (MV4-11): 1620 nM
IC50 [2]: 5720 nM
Structure (SMILES): CCN(CCNC(=O)Nc1ccc(C(C)(C)C)cc1)c1nc(C)cc(Nc2ccc3nc(C)cc(N)c3c2)n1

IC50 [14]: 19 nM
GI50 (Leukemia cell): 290 nM
GI50 (Breast carcinoma cell): 290 nM
Structure (SMILES): COc1cc2nccc(Oc3ccc(NC(=O)C4(C(=O)Nc5ccc(F)cc5)CC4)cc3)c2cc1OC(=O)c1ccc(N)cc1
GI50 [15]: 290 nM

IC50 [19]: 52 nM
Structure (SMILES): COc1ccc(-c2cc(C(=O)N/N=C(\C=C\c3ccc(Cl)cc3)c3ccc(N)cc3)c3ccccc3n2)cc1
IC50 (A549): 1910 nM
IC50 (K562): 1910 nM

IC50 [21]: 1110 nM
Structure (SMILES): Cc1ccc2nc(/C=C/c3ccc(N(C)C)cc3)cc(-c3nnc(N)s3)c2c1
IC50 (HepG2 [20]): 7.7 µg/mL (≈ 19.9 µM)
IC50 (HCT-116): 7.7 µg/mL (≈ 19.9 µM)

IC50 [19]: 197 nM
Structure (SMILES): Cc1ccc(-c2cc(C(=O)N/N=C(\C=C\c3ccc(Cl)cc3)c3ccc(N)cc3)c3ccccc3n2)cc1
IC50 (A549): 1910 nM
IC50 (K562): 1910 nM

IC50 [27]: 42.5 nM
Structure (SMILES): COc1ccc2nc(Cl)c(C3CC(c4ccc(C)cc4)=NN3c3nc(C)c(C(=O)Nc4ccccc4)s3)cc2c1 (stereo unspecified)

IC50 (Plasmodium falciparum [3]): 380 nM
IC50 (Plasmodium berghei [28]): 5400 nM
Structure (SMILES): COc1cc(C)c2c(Oc3cccc(C(F)(F)F)c3)c(OC)cc(NC(C)CCON)c2n1 (stereo unspecified)

IC50 (MCF7 [22]): 1130 nM
IC50 (A2780 [23]): 1130 nM
IC50 (A2780 [24]): 1130 nM
Structure (SMILES): COc1ccc(Nc2cc(/C=C/c3ccc([N+](=O)[O-])cc3)nc3cc(OC)c(OC)c(OC)c23)cc1OC
IC50 (MCF7 [25]): 1130 nM
IC50 [26]: 7820 nM

IC50 [14]: 19 nM
GI50 (Leukemia cell): 290 nM
GI50 (Breast carcinoma cell): 290 nM
Structure (SMILES): COc1cc2nccc(Oc3ccc(NC(=O)C4(C(=O)Nc5ccc(F)cc5)CC4)cc3)c2cc1Oc1ccc(N)cn1
GI50 [15]: 290 nM

inhibition [29]: 27.7%
Structure (SMILES): O=[N+]([O-])c1ccc(O)c2ncccc12

IC50 (MCF7 [22]): 1230 nM
Structure (SMILES): O=S(=O)(Nc1cccc2cccnc12)c1cccc2cccnc12
fold change (FC) (Hep 3B2 [30]): 0.23
IC50 (Hep 3B2 [31]): 1230 nM
IC50 [32]: 1230 nM

IC50 (NCI-H460): 1900 nM
IC50 (PANC-1): 1900 nM
IC50 (MIA PaCa-2): 1900 nM
IC50 (HT-29): 1900 nM
IC50 (A-375): 1900 nM
Structure (SMILES): CSc1nc2ccccc2cc1/C=C1/C=C(c2ccccc2)NC1=O
